Activity calls are given as the source filed them. No cut-off for these calls is given here.

One assay can be described thus: Compound was evaluated for anesthetic activity (lowest dose producing loss of righting reflex); IA=Inactive. In kind it is functional.
As for `CC(=O)C1=CCC2C3CC[C@H]4C[C@H](O)CCC4(C)C3C(=O)CC12C` (some centres not stated), the result was inactive.

The nature of another assay: Compound was evaluated for anesthetic activity (lowest dose producing loss of righting reflex). In kind it is functional.
The compound `CC(=O)[C@H]1CC[C@H]2[C@@H]3CC[C@H]4C[C@H](O)CC[C@]4(C)[C@H]3CC[C@]12C` [BREXANOLONE] displayed an Activity of 3.1 mg/kg.

`CC(=O)C1CC[C@H]2[C@@H]3CC[C@@H]4C[C@@H](O)CCC4(C)[C@H]3CCC12C` (some centres not stated) showed an Activity of 25 mg/kg.

Consider `CC(=O)C1CC[C@H]2[C@@H]3CC[C@@H]4C[C@H](O)CCC4(C)[C@H]3CCC12C` (some centres not stated), for which the Activity amounted to 3.1 mg/kg.

`CC(=O)[C@H]1CC[C@H]2[C@@H]3CC[C@H]4C[C@H](O)CC[C@]4(C)[C@H]3C(=O)C[C@]12C` [ALFAXALONE]: the Activity turned out to be 3.1 mg/kg.

Take `CC(=O)C1CC[C@H]2[C@@H]3CC[C@H]4C[C@@H](O)CCC4(C)[C@H]3CCC12C` (some centres not stated): the Activity was found to be 100 mg/kg.

`CC(=O)[C@H]1CC[C@H]2[C@@H]3CC[C@@H]4C[C@H](O)CC[C@]4(C)[C@H]3C(=O)C[C@]12C` [RENANOLONE] showed an Activity of 6.3 mg/kg.
